Reference: US11608334B2, “Pyrrolo-aromatic heterocyclic compound, preparation method therefor, and medical use thereof” (The National Institutes of Pharmaceutical R&D Co., Ltd., priority 2017, dated 2023)

How the values were obtained:
BTK = target: T1, BTK (Homo sapiens, UniProt Q06187); test: Determination of BTK inhibitory activity (ADP-Glo kinase assay); assay type: biochemical; conditions: BTK (Promega), Poly E4Y substrate, 25° C., 60 minutes
T1 construct: purchased Promega
Description: To a 384 reaction plate (6008280, PerkinElmer), 2 μL/well of BTK solution (purchased from Promega) was added. The test compound (10 mM stock solution) was diluted 100-fold to 100 μM with 100% DMSO. In a 384 dilution plate (3657, coming), a 1:3 dilution was made, and the gradient concentrations of the test compounds were 100, 33.3, 11.1, 3.7, 1.24, 0.41, 0.14, 0.046, 0.015, 0.0051, 0 μM. 2 μL of the test compound was transferred to a 384-dilution plate containing 38 μL of 1× Kinase Reaction Buffer, homogenized and centrifuged at 1000 rpm. 1 μL of the test compound was transferred to the 384 reaction plate, centrifuged at 1000 rpm, and incubated at 25° C. for 15 minutes. 2 μL of substrate mixture (ATP: 10 mM, 4 μL; Poly E4Y 1:1 mg/mL, 20 μL; Kinase Reaction Buffer: 776 μL) was transferred to a 384 reaction plate, centrifuged at 1000 rpm and incubated at 25° C. for 60 minutes. The final concentration of the test compound in the reaction system was the gradients of 1000, 333.3, 111.1, 37.03, 12.35, 4.14, 1.37, 0.46, 0.15, 0.051, 0 nM. The final concentration of DMSO was 1%. 5 μL of ADP-Glo solution (purchased from Promega) was transferred to a 384 reaction plate, centrifuged at 1000 rpm and incubated at 25° C. for 40 minutes. 10 μL of Detection solution was transferred to a 384 reaction plate, centrifuged at 1000 rpm and incubated for 40 minutes at 25° C. The RLU (Relative luminescence unit) signal was read using an Envision multi-function reader (Perkin Elmer), and the signal intensity was used to characterize the activity of BTK kinase. The IC50 values was calculated and analyzed by Microsoft Excel software.

[1] = test system: Type 2 Collagen Induced DBA/1J Mouse Arthritis Model (CIA); test: Type 2 collagen induced DBA/1J mouse arthritis model (CIA), arthritis index score; assay type: in vivo; conditions: CIA DBA/1 mice, 30 mg/kg orally once a day, n = 9
Description: The CIA model is an animal model widely used to study the drug activity on human rheumatoid arthritis.
Animals: DBA/1 mice, sex: male, number: 30, weight: 14-16 g, age of weeks: 6-7 weeks old, purchased from Beijing Weitong Lihua Experimental Animal Technology Co., Ltd., SPF, animal production license number: SCXK (Beijing) 2012-0001, the issue unit: Beijing Science and Technology Commission.
Group: model control group, administration (30 mg/Kg) group (compound of example 33).
An appropriate amount of Bovine Type II Collage (purchased from Chondrex. Inc.) was dissolved in 0.05 M acetic acid (4 mg collagen/mL) and stored in a refrigerator at 4° C. overnight. Then it was fully emulsified with an equal amount of complete Freund's adjuvant in an ice bath environment. Each DBA/1J mouse was injected subcutaneously at 1.5 cm from the base of the tail with 0.1 mL emulsion (200 μg of collagen). Clinical symptom observation and arthritis score were started 4 weeks after modeling. The scores of all symptomatic animals were ranked and randomly grouped into two groups, which were model control group (the same amount of 0.5% CMC was administered orally) and administration group (30 mg/kg of the compound of Example 33 was administered orally) respectively. The administration was continued for 21 days withonce a day. Arthritis scores and body weight changes were measured every 3 days after administration.
Arthritis Index Score: The arthritis index score is based on Wood's arthritis score as follows: • 0 points: normal • 1 points: redness involving 1 knuckle • 2 points: redness involving more than 2 knuckles or mild redness involving entire foot • 3 points: the feet are red and swollen • 4 points: the feet are severely red and swollen, and the joints are stiff and inelastic.
The damage of each of the 4 paws was graded as 0-4 points and the total score of the limbs was calculated. The scores at different times were compared (arthritis index).

T1 sequence (Q06187 whole entry): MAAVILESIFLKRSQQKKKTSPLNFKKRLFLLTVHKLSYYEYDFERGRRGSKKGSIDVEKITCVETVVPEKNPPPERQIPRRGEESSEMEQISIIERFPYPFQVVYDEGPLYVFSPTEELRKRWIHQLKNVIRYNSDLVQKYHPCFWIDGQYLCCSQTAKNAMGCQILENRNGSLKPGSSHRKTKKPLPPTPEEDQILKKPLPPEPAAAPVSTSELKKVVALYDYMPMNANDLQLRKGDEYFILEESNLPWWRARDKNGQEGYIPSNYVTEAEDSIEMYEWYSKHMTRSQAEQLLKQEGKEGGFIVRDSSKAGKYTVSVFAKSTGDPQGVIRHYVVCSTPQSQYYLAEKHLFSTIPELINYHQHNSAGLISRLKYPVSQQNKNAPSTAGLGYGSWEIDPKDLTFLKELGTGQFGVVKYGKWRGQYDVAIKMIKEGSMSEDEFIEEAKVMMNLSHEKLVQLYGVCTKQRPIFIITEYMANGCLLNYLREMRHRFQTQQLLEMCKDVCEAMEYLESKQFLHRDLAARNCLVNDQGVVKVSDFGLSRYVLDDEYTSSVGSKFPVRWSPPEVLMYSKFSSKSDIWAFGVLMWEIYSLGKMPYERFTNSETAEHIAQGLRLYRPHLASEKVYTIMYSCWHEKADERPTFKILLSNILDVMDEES

Row | IC50 (BTK) [nM] | SMILES | further results
1 | < 100 | C=CC(=O)Nc1cccc(Oc2c(Cl)cnc3[nH]c(-c4ccc(N5CCN(C)CC5)cc4)cc23)c1 [Example 1, N-(3-((5-chloro-2-(4-(4-methylpiperazin-1yl)phenyl)-1H-pyrrolo[2,3-b]pyridin-4-yl)oxy)phenyl)acrylamide] | –
2 | < 100 | C=CC(=O)Nc1cccc(Oc2c(F)cnc3[nH]c(-c4ccc(N5CCN(C)CC5)cc4)cc23)c1 [Example 2, N-(3-((5-fluoro-2-(4-(4-methylpiperazin-1yl)phenyl)-1H-pyrrolo[2,3-b]pyridin-4-yl)oxy)phenyl) acrylamide] | –
3 | < 100 | C=CC(=O)Nc1cccc(Nc2ncnc3[nH]c(-c4ccc(N5CCN(C)CC5)cc4)cc23)c1 [Example 5, N-(3-((6-(4-(4-methylpiperazin-1-yl)phenyl)-7H-pyrrolo[2,3-d]pyrimidin-4-yl)amino)phenyl)acrylamide] | –
4 | < 100 | CC#CC(=O)Nc1cccc(Oc2ncnc3[nH]c(-c4ccc(N5CCN(C)CC5)cc4)cc23)c1 [Example 6, N-(3-((6-(4-(4-methylpiperazin-1-yl)phenyl)-7H-pyrrolo[2,3-d]pyrimidin-4-yl)oxy)phenyl) but-2-ynylamide] | –
5 | < 100 | C=CC(=O)Nc1cccc(Oc2ncnc3[nH]c(-c4ccc(N5CCN(C)CC5)cc4)cc23)c1 [Example 12, N-(3-((6-(4-(4-methylpiperazin-1-yl)phenyl)-7H-pyrrolo[2,3-d]pyrimidin-4-yl)oxy)phenyl) acrylamide] | –
6 | < 100 | C=CC(=O)N(C)c1cccc(Oc2ncnc3[nH]c(-c4ccc(N5CCOCC5)cc4)cc23)c1 [Example 16, N-methyl-N-(3-((6-(4-morpholinylphenyl)-7H-pyrrolo[2,3-d]pyrimidin-4-yl)oxy)phenyl)acrylamide] | –
7 | < 100 | C=CC(=O)Nc1cc(Oc2ncnc3[nH]c(-c4ccc(N5CCN(C)CC5)cc4)cc23)ccc1F [Example 18, N-(2-fluoro-5-((6-(4-(4-methylpiperazin-1-yl)phenyl)-7H-pyrrolo[2,3-d]pyrimidin-4-yl)oxy)phenyl)acrylamide] | –
8 | < 100 | C=CC(=O)Nc1cc(Oc2ncnc3[nH]c(-c4ccc(N5CCOCC5)cc4)cc23)ccc1F [Example 19, N-(2-Fluoro-5-((6-(4-morpholinylphenyl)-7H-pyrrolo[2,3-d]pyrimidin-4-yl)oxy)phenyl)acrylamide] | –
9 | < 100 | C=CC(=O)Nc1cccc(Oc2ncnc3[nH]c(-c4ccc(N5CCN(C)CC5)c(F)c4)cc23)c1 [Example 25, N-(3-((6-(3-fluoro-4-(4-methylpiperazin-1-yl)phenyl)-7H-pyrrolo[2,3-d]pyrimidin-4-yl)oxy)phenyl)acrylamide] | –
10 | < 100 | C=CC(=O)Nc1cccc(Nc2ncnc3[nH]c(-c4ccc(N5CCOCC5)cc4)cc23)c1 [Example 32, N-(3-((6-(4-morpholinylphenyl)-7H-pyrrolo[2,3-d]pyrimidin-4-yl)amino)phenyl) acrylamide] | –
11 | – | C=CC(=O)Nc1cccc(Oc2ncnc3[nH]c(-c4ccc(N5CCOCC5)cc4)cc23)c1 [Example 33, N-(3-((6-(4-morpholinylphenyl)-7H-pyrrolo[2,3-d]pyrimidin-4-yl)oxy)phenyl)acrylamide] | Arthritis score ([1]; 3 day after administration): 5.00 ± 3.16; Arthritis score ([1]; 7 day after administration): 5.78 ± 2.91; Arthritis score ([1]; 10 day after administration): 6.13 ± 3.23; Arthritis score ([1]; 14 day after administration, *P < 0.05 vs model control): 5.13 ± 3.60*; Arthritis score ([1]; 17 day after administration, *P < 0.05 vs model control): 4.63 ± 3.11*; Arthritis score ([1]; 21 day after administration, **P < 0.01 vs model control): 3.63 ± 1.92**; Arthritis score ([1]; Before administration): 4.11 ± 3.26
12 | < 100 | C=CC(=O)Nc1cccc(Oc2ncnc3[nH]c(-c4ccc(CN5CCS(=O)(=O)CC5)cc4)cc23)c1 [Example 44, N-(3-((6-(4-((1,1-dioxothiomorpholinyl)methyl)phenyl)-7H-pyrrolo[2,3-d]pyrimidin-4-yl)oxy)phenyl)acrylamide] | –
13 | < 100 | C=CC(=O)Nc1cccc(Oc2ncnc3[nH]c(-c4ccc(CN5CCOCC5)cc4)cc23)c1 [Example 46, N-(3-((6-(4-(morpholinomethyl)phenyl)-7H-pyrrolo[2,3-d]pyrimidin-4-yl)oxy)phenyl)acrylamide] | –
14 | < 100 | C=CC(=O)Nc1cccc(Oc2ncnc3[nH]c(-c4ccc(CN5CCC(F)(F)CC5)cc4)cc23)c1 [Example 47, N-(3-((6-(4-((4,4-Difluoropiperidin-1-yl)methyl)phenyl)-7H-pyrrolo[2,3-d]pyrimidin-4-yl)oxy)phenyl)acrylamide] | –
15 | < 100 | C=CC(=O)Nc1cccc(Oc2ncnc3[nH]c(-c4ccc(NC5CCN(C)CC5)cc4)cc23)c1 [Example 53, N-(3-((6-(4-((1-methylpiperidin-4-yl)amino)phenyl)-7H-pyrrolo[2,3-d]pyrimidin-4-yl)oxy)phenyl)acrylamide] | –
16 | < 100 | CC#CC(=O)Nc1cccc(Oc2ncnc3[nH]c(-c4ccc(CN5CCC(F)(F)CC5)cc4)cc23)c1 [Example 63, N-(3-((6-(4-((4,4-difluoropiperidin-1-yl)methyl)phenyl)-7H-pyrrolo[2,3-d]pyrimidin-4-yl)oxy)phenyl)but-2-ynylamide] | –
17 | < 100 | CC#CC(=O)Nc1cccc(Oc2ncnc3[nH]c(-c4ccc(CN5CCCCC5)cc4)cc23)c1 [Example 64] | –
